# From US5601806A, “Methods for scavenging active oxygen compounds and preventing damage from ultra violet B rays using taurine analogues” (Sogo Pharmaceutical Company Limited, priority 1991, dated 1997)
# Legend:
# tyrosinase [1] = experiment: Tyrosine oxidation preventing effect (tyrosine oxide polymer production); format: biochemical; conditions: Ultraviolet rays
# Method: In a quartz cell was put 1 ml of L-tyrosine (30 mg/100 ml), 1 ml of a tris buffer solution and 0.9 ml of a test solution (6.25×1/10^2 mol/l-1 mol/l), and the mixture was allowed to stand under radiation from an ultraviolet lamp at 37° C. for 10 minutes. Following this, 0.1 ml of tyrosinase (2000 units/ml) were added thereto, and further irradiated under an ultraviolet lamp at 37° C. for 30 minutes, after which the production of tyrosine oxide polymers was measured at 475 nm.
# tyrosinase [2] = experiment: as above; format: biochemical; conditions: Indoors
# [3] = SOD-mimic functions of thiotaurine (xanthine-xanthine oxidase-NBT method); format: biochemical
# From the text: Experimental method: Measurement of the SOD-mimic functions was done, with slight modifications, according to the Xanthine-xanthine oxidase-nitrobluetetrazolium (NBT) method described in Lipid Peroxide Experiments (edited by N. Kaneda, N. Ueda, Ishiyaku Press, p. 144). The measurement is based on measuring at 560 nm the amount of formazan produced by the reduction of NBT with a superoxide which results from the oxidation of xanthine with xanthine oxidase, and calculating the activation thereof. The modification involved irradiation with UVB ([…], 1.8 J/cm^2, 313 nm) for 5 minutes while simultaneously adding the xanthine oxidase, in order to interrupt the reaction.
# SOD = SOD (Bos taurus, UniProt P00442); experiment: SOD activating function; format: biochemical; conditions: read-out: SOD activating function (SOD activation rate)
# Sequence of SOD (P00442 whole entry): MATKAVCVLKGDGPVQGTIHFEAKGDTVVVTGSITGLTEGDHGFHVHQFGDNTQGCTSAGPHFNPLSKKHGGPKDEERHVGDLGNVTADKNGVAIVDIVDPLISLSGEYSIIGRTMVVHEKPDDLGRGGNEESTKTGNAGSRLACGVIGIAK
# Method: (§1) Next, a measurement was made of the SOD activating function.
# Method of measurement of SOD activating function
# Test Comp. 0.1 0.1 -- --
# Preincubate 25° C., 10 min.
# UVB radiation, 6.0 mw/cm^2, 5 min. (1.8 J/cm^2)
# (1) System for observing whether the consumption of superoxides by SOD is
# further increased with the test composition.
# (§2) (3) System for inhibiting XOD reaction with SOD. XOD reaction was 20%
# (4) System for a complete, uninhibited XOD reaction.
# The SOD activation rates of the test compositions were calculated using the equation listed as Equation 1 below, and the results shown in Table 3 were obtained. [formula]
# [4] = Reactivity with singlet oxygen, riboflavin (Rf)/h.nu.-system; format: biochemical; conditions: for thiotaurine reacted with ^1 O2 (decomposition): absence of NaN3, pH 7.8
# Method: Fourteen milligrams of thiotaurine and 1.5 mg of riboflavin (Rf) were dissolved in 50 ml of a wing buffer solution (pH 7.8), after which light irradiation (FL20SBRF Toshiba, UVA 0.1 mW/cm^2, UVB 0.1 mW/cm^2, visible light 0.4 mW/cm^2) was initiated in the presence and in the absence of 34 mg of sodium azide (NaN3). After continuously reacting the product from the reactant solution with dansyl chloride, a fluorescent reagent, high-performance liquid chromatography was used for separation and analysis.
# The conditions for the high-performance liquid chromatography were as listed below.
# Mobile phase: 0.1M phosphate buffer solution: THF ([…]): acetonitrile=670:40:350
# The results obtained are shown in FIG. 1 as percentages (%) for the proportions of thiotaurine, hypotaurine and taurine at each hour shown.
# It is assumed that in the Rf/h.nu.-system ^1 O2 is produced according to the formula listed below as Chemical formula 7.
# [5] = Reactivity with ^1 O2 in riboflavin, rose bengal and methylene blue/h.nu.-systems with DABCO; format: biochemical; conditions: DABCO as quencher
# From the text: Therefore, the 3 systems listed below were used in identical experiments.
# 1. Riboflavin/h.nu.-system, 1,4-diazabicyclooctane (DABCO) as ^1 O2 quencher
# 2. Rose bengal/h.nu.-system DABCO as ^1 O2 quencher
# 3. Methylene blue/h.nu.-system DABCO as ^1 O2 eliminator
# [6] = Lipid peroxide production inhibitory effect; format: biochemical
# Method: Fifty ml of a solution prepared by combining a solution of 12.5 mg of methyl linoleate, 2.5 mg of Rf and 2-70 mg of thiotaurine in ethanol with a wing buffer solution, and the resulting solution was subjected to light irradiation as in Experiment 2. After a determined period of time a sample was recovered, and the lipid peroxides were measured using the Yagi method.
# [7] = Preventing effect on photo-oxidation of methionine by hydroxyl radical; format: biochemical; conditions: 1 mM thiotaurine, 1 mM methionine, riboflavin, NADH, Fe (II) EDTA, UVA 370 nm
# Method: In a quartz cell was placed 1 mM of methionine, riboflavin, NADH and Fe (II) EDTA, and super high pressure mercury lamp rays (UVA 370 nm) were irradiated thereto, thus presenting a control. Next, 1 mM of thiotaurine was added to the same system mentioned above and the reaction was initiated by light irradiation as before, while the two reactions were sequentially followed by HPLC and finally compared.
# These systems, to which the Fe (II) chelate compound and electron donor, NADH, were added in the presence of riboflavin, produced the HO.
# [8] = H2 O2 scavenging function; format: biochemical
# Method: In a quartz cell were placed 1 mM of thiotaurine and […] of H2 O2, and the change in thiotaurine was measured by HPLC while irradiating with light.
# [9] = Influence of externally applied thiotaurine on UVB rays (erythema, SPF); format: in vivo, male Hartley guinea pigs
# Method: Thiotaurine was added to a base cream of the composition indicated in Table 5, at concentrations of 5.0% (w/w) and 7.5% (w/w), respectively.
# Experimental method: In this experiment, male Hartley guinea pigs of body weight 230-250 g were used. The back, abdomen and side hair of the guinea pigs was first roughly removed with hair clippers, after which the hair was completely removed with care using a Brown electric shaver. On the morning of the next day, the hair was again removed, the body weights measured, and the groups divided. The UVB radiation was applied in 10 stages of 0.075, 0.1, 0.15, 0.2, 0.3, 0.4, 0.5, 0.6, 0.7, and 0.8. Five minutes prior to irradiation, the base cream was applied to the control area, and the thiotaurine-containing cream preparations were applied to the test area. Then observations were made 2, 4, 6, 8, and 24 hours later to determine the presence of erythema, visually.
# 1; Difficult to determine presence or absence of erythema
# 2; Erythema clearly present but edges unclear
# 3; Erythema clearly present and edges clear
# [10] = Effect on hydrocortisone induced chick embryo cataract; format: in vivo, White leghorn chick embryos; conditions: HC 0.12 mg/egg
# Method: White leghorn chick embryos were incubated in an incubator at a temperature of 37° C. and a humidity of approximately 70%. Then a solution of 0.12 mg of hydrocortisone succinate (HC) in 0.2 ml of purified water was administered through the air chambers of the eggs of the control group and the test group on the 15th day of incubation. Thiotaurine was then given to the test group 2 hours, or 2 and 5 hours, after HC administration.
# The lenses were removed 8 hours after HC administration, and the presence of cataracts was judged according to the criteria listed in Table 8, using the method of Nishikuni, et. al. (Investigative Opthamology and Visual Science, 25, p. 1051, 1984).
# I. Lens was clear and indistinguishable from control.
# IV: Pinhole-sized clear area in an opaque nucleus.
# [11] = Effect on alloxan diabetes; format: in vivo, Wistar Imamichi rats; conditions: 500 mg/kg oral once a day, 2 weeks
# Method: Thiotaurine was orally administered in an amount of 500 mg/kg once a day to Wistar Imamichi rats, for a period of 2 weeks. Three days prior to the last administration of the medicine feeding of the rats was stopped for 16 hours, and alloxan dissolved in chilled physiological saline was intravenously injected at an amount of 75 mg/kg. One hour after the last administration of the medicine, the rats were killed, their blood was obtained, and a measurement was made of the triglycerides and blood sugar in the blood, using the enzyme method.
# [12] = Long-term administration to rats, 180 days; format: in vivo; conditions: 200 mg/kg every day
# From the text: The active ingredient compound according to the present invention, an aminothiosulfonic acid, not only functions as a light shield and as a production inhibitor or scavenger of lipid peroxides and active oxygen, but since it and its decomposition products are structurally similar to compounds which are naturally present in the body including taurine, etc. (C.R. Acad. Sci., Ser. 3, 302 (13) 503-8: Presence of Large Quantities of Thiotaurine and Hypotaurine in the Tissues of Riftia pachyptila), its toxicity is extremely low making it a safe substance.
# in vivo = conditions: rat, SD male and female rats, oral
# bacteria = format: cell-based; conditions: coexistence or non-coexistence with S9Mix
# [13] = Primary skin irritation test; format: in vivo; conditions: rabbits
# Method: (§3) In addition, the result was determined to be negative in both a primary skin irritation test and an eye irritation test using rabbits.
# [14] = parameters: species or system rabbits; conditions: rabbit, in vivo
# Method: as §3
# [15] = alloxan; cited from earlier work
# XOD = experiment: Inhibition of XOD reaction by SOD (system (3) of SOD activating method); format: biochemical; conditions: SOD 0.1 ml
# From the text: as §1, §2
# [16] = applied externally to the skin; cited from earlier work
# [17] = alloxan 75 mg/kg i.v., P < 0.05 vs control group
compound,measurement,setting,value
N=C(N)NCCS(=O)(O)=S [thiotaurocyamine],Inhibition rate (tyrosine oxidation),tyrosinase [1]; 1 mol/l,96.6%
same,Inhibition rate (tyrosine oxidation),tyrosinase [1]; 1.25 × 10^-1 mol/l,88.2%
same,Inhibition rate (tyrosine oxidation),tyrosinase [1]; 2.5 × 10^-1 mol/l,92.8%
same,Inhibition rate (tyrosine oxidation),tyrosinase [1]; 5 × 10^-1 mol/l,92.4%
same,Inhibition rate (tyrosine oxidation),tyrosinase [1]; 6.25 × 10^-2 mol/l,78.0%
same,Inhibition rate (tyrosine oxidation),tyrosinase [2]; 1 mol/l,91.5%
same,Inhibition rate (tyrosine oxidation),tyrosinase [2]; 1.25 × 10^-1 mol/l,36.8%
same,Inhibition rate (tyrosine oxidation),tyrosinase [2]; 2.5 × 10^-1 mol/l,61.7%
same,Inhibition rate (tyrosine oxidation),tyrosinase [2]; 5 × 10^-1 mol/l,87.7%
same,Inhibition rate (tyrosine oxidation),tyrosinase [2]; 6.25 × 10^-2 mol/l,12.8%
"NCCS(=O)(O)=S [thiotaurine, Aminoethyl thiosulfonate]",Superoxide production inhibition rate,[3]; 10^-2 M/reaction solution,34.4%
same,Superoxide production inhibition rate,[3]; 10^-3 M/reaction solution,34.7%
same,Superoxide production inhibition rate,[3]; 10^-4 M/reaction solution,43.2%
same,Superoxide production inhibition rate,[3]; 10^-5 M/reaction solution,35.7%
same,Superoxide production inhibition rate,[3]; 10^-6 M/reaction solution,47.0%
same,Superoxide production inhibition rate,[3]; 10^-7 M/reaction solution,34.7%
same,activation at 10000 µM,SOD; 10^-2 M/reaction solution,65.8%
same,activation at 1000 µM,SOD; 10^-3 M/reaction solution,32.1%
same,activation at 100 µM,SOD; 10^-4 M/reaction solution,29.6%
same,activation at 10 µM,SOD; 10^-5 M/reaction solution,14.3%
same,activation at 1 µM,SOD; 10^-6 M/reaction solution,1.6%
same,thiotaurine reacted with ^1 O2 (decomposition),[4]; 2 hours,40%
same,thiotaurine reacted with ^1 O2 (decomposition),[4]; 6 hours,90%
same,thiotaurine remaining,"[4]; 6 hours, presence of NaN3 (^1 O2 quencher), pH 7.8",approximately 85%
same,reaction with ^1 O2,[5],reacts with ^1 O2 in all three systems
same,prevention of production of lipid peroxides,"[6]; 2.8×1/10^4 M, after 7.5 hours, 280 µM",approximately 50%
same,prevention of production of lipid peroxides,"[6]; 4×1/10^3 M, 4000 µM",~100%
same,inhibition of methionine oxidation with HO.,[7],"inhibits the methionine oxidation with HO., and has a scavenging effect against hydroxy radicals"
same,"oxidation of thiotaurine to taurine and hypotaurine with H2 O2, time","[8]; light irradiation, 1 mM thiotaurine",about 3 hours
same,reaction with H2 O2,[8]; no light irradiation,did not react at all
same,SPF value,"[9]; 5% (w/w) cream, 2 hr post-irradiation",3.6
same,SPF value,"[9]; 5% (w/w) cream, 4 hr post-irradiation",3.6
same,SPF value,"[9]; 5% (w/w) cream, 6 hr post-irradiation",3.8
same,SPF value,"[9]; 5% (w/w) cream, 8 hr post-irradiation",4.1
same,SPF value,"[9]; 5% (w/w) cream, 24 hr post-irradiation",5.0
same,SPF value,"[9]; 7.5% (w/w) cream, 2 hr post-irradiation",4.4
same,SPF value,"[9]; 7.5% (w/w) cream, 4 hr post-irradiation",4.3
same,SPF value,"[9]; 7.5% (w/w) cream, 6 hr post-irradiation",4.3
same,SPF value,"[9]; 7.5% (w/w) cream, 8 hr post-irradiation",4.3
same,SPF value,"[9]; 7.5% (w/w) cream, 24 hr post-irradiation",5.7
same,Determination: lenses of grade II (faint opaque ring),[10]; 0.5 mg × 1 time/egg,6/8
same,Determination: lenses of grade III (distinct opaque ring),[10]; 0.5 mg × 1 time/egg,2/8
same,Determination: lenses of grade I (clear),[10]; 1.0 mg × 1 time/egg,2/8
same,Determination: lenses of grade II (faint opaque ring),[10]; 1.0 mg × 1 time/egg,2/8
same,Determination: lenses of grade III (distinct opaque ring),[10]; 1.0 mg × 1 time/egg,4/8
same,Determination: lenses of grade I (clear),[10]; 1.0 mg × 2 times/egg,4/8
same,Determination: lenses of grade II (faint opaque ring),[10]; 1.0 mg × 2 times/egg,4/8
same,Determination: lenses of grade I (clear),[10]; 2.0 mg × 2 times/egg,4/8
same,Determination: lenses of grade II (faint opaque ring),[10]; 2.0 mg × 2 times/egg,4/8
same,"increase of glucose suppressed to, compared with control",[11],65%
same,"increase of triglycerides suppressed to, compared with control",[11],70%
same,Blood sugar,[11]; [17],769.1 ± 120.3 mg/dL
same,Triglyceride,[11]; [17],363.8 ± 38.2 mg/dL
same,Blood sugar relative to control group (100),[11]; control = 100,65
same,Triglyceride relative to control group (100),[11]; control = 100,70
same,change in the body weight curve,[12],no change in the body weight curve
same,deaths,[12],no deaths at all
same,LD50,in vivo,> 2000 mg/kg
same,mutagenicity (Ames Test),bacteria,no mutagenecity was observed
same,primary skin irritation,[13],negative
same,eye irritation,[14],negative
catalase,symptoms of diabetes,[15],suppressed
superoxide dismutase [SOD],XOD reaction inhibited by SOD,XOD,20%
same,amount of lipid peroxides in the epidermis due to UV rays,[16],lowering the amount of lipid peroxides (LPO) in the epidermis due to UV rays
same,symptoms of diabetes,[15],suppressed
